Source: patent US9408853B2, “Iridium/rhodium anti-cancer compounds” (University of Warwick, priority 2010, dated 2016)

How the values were obtained:
MCF-7 cancer cell line = conditions: cited from earlier work
HT-29 cancer cell line = conditions: cited from earlier work
[1] = test system: human ovarian A2780 cancer cells; test: Cancer cell cytotoxicity, SRB assay; assay type: cell-based; conditions: 24 h exposure, 72 h recovery, SRB; read-out: A2780 IC50
Protocol: Cancer Cell Cytotoxicity. After plating, human ovarian A2780 cancer cells were treated with Ir^III complexes on day 3 at concentrations ranging from 0.5 μM to 100 μM. Solutions of the Ir^III complexes were made up in 0.125% DMSO to assist dissolution. Stock solutions of the IrIII complexes were firstly prepared in DMSO to assist dissolution, and then diluted into 0.9% saline and medium. After plating 5000 A2780 cells per well on day 1, IrIII complexes were added to the cancer cells on day 3 at concentrations ranging from 0.05 μM to 100 μM. Cells were exposed to the complexes for 24 h, washed, supplied with fresh medium, allowed to grow for three doubling times (72 h), and then the protein content measured (proportional to cell survival) using the sulforhodamine B (SRB) assay.^15 […]. The standard errors are based on two independent experiments of three replicates each.

[2] = Hydrolysis studies of C,N-chelated complexes and anation by NaCl (1H NMR); assay type: physicochemical; conditions: 20% MeOD-d4/80% D2O; equilibrium reached within ~5 min even at 278 K
Source text: Hydrolysis Studies. The hydrolysis of complexes [(η^5-C5Me5)Ir(2-phpy)Cl] (ZL47), [(η^5-C5Me4C6H4C6H5)Ir(2-phpy)Cl] (ZL49), [(η^5-C5Me5) Ir(2-phq)Cl] (ZL68), [(η^5-C5Me5) Ir(tpy)Cl] (ZL69), [(η^5-C5Me5)Ir(2-dfphpy)Cl] (ZL74) and [(η^5-C5Me4C6H5)Ir(2-phpy) Cl] (ZL107) in 20% MeOD-d4/80% D2O (v/v) was monitored by ^1H NMR at different temperatures. The presence of methanol ensured the solubility of the complexes.

[3] = test system: A2780 human ovarian cancer cells; test: Cytotoxicity testing of rhodium complexes; assay type: cell-based
Protocol: Cytotoxicity testing in A2780 human ovarian cancer cells was performed by Dr Ana Maria Pizarro Arranz at the University of Warwick.

9-ethylguanine (9-EtG) = test: Interactions with nucleobases: 9-EtG adduct formation (1H NMR); assay type: binding; conditions: 24 h; ca. 1.0 mM, 1 mol equiv 9-EtG, 20% MeOD-d4/80% D2O, 310 K
Protocol: Interactions with Nucleobases. The reaction of ZL01, ZL03, ZL04, ZL07, ZL25, ZL33, ZL37, ZL38, ZL43 and ZL54 and ZL33A with nucleobases typically involved addition of a solution containing 1-2 mol equiv of nucleobase in D2O, to an equilibrium solution of ZL01, ZL03, ZL04, ZL07, ZL25, ZL33, ZL37, ZL38, ZL43, ZL54 and ZL33A in a solution of 5% MeOD-d4/95% D2O (v/v). ^1H NMR spectra of these solutions were recorded at 310 K after various time intervals.
Since DNA is a potential target site for transition metal anticancer complexes,^18 nucleobase binding reactions of compounds ZL01, ZL03, ZL04, ZL07, ZL25, ZL33, ZL33A, ZL37, ZL38, ZL43 and ZL54 with nucleobase models 9-ethylguanine (9-EtG) and 9-ethyladenine (9-EtA), were investigated. Solutions of ZL01, ZL03, ZL04, ZL07, ZL25, ZL33, ZL37, ZL38, ZL43 and ZL54 (1 mM) (containing an equilibrium mixture of these complexes and their respective aqua adducts) with 1 mol equivalent of 9-EtG or 9-EtA in D2O were prepared, and ^1H NMR spectra were recorded at different time intervals.
Interactions with Nucleobases. Since DNA is a potential target site for transition metal anticancer complexes,^23 the binding of 9-ethylguanine (9-EtG) to complexes ZL47, ZL49, ZL69, ZL74 and ZL107 was studied.

[4] = test system: human ovarian cancer cell line A2780; conditions: cited from earlier work
[5] = test system: human ovarian cancer cell line A2780cisR (cisplatin-resistant); conditions: cited from earlier work
colon COLO 205 = test: NCI screen, single cell line; assay type: cell-based
Source text: (§1) Six complexes, [(η^5-C5Me4C6H4C6H5)Ir(bpy)Cl]PF6 (ZL25, bpy=2,2′-bipyridine), [(η^5-C5Me4C6H5)Ir(phen)Cl]PF6 (ZL33, phen=1,10-phenanthroline), [(η^5-C5Me4C6H4C6H5) Ir(pico)Cl] (ZL43, pico=picolinate), [(η^5-C5Me5)Ir(2-phpy)Cl] (ZL47), [(η^5-C5Me4C6H4C6H5)Ir(2-phPY)(D2O)Cl] (ZL49) and [(η^5-C5Me4C6H4C6H5) Ir(phen)Cl]PF6 (ZL54), were selected by Developmental Therapeutics Program of National Cancer Institute (NCI, U.S.A.) for in vitro screening test, in which 5 complexes except ZL43 are selected for further testing. The five complexes were tested on ca. 60 cell lines within nine tumour type subpanels at five concentrations ranging from 0.01 to 100 μM.

melanoma SK-MEL-5 = test: NCI screen, single cell line; assay type: cell-based
Source text: as §1

breast MDA-MB-468 = test: NCI screen, single cell line; assay type: cell-based
Source text: as §1

[6] = test system: ca. 60 cell lines within nine tumour type subpanels; assay type: cell-based
Source text: as §1

Row | hydrolysis (in words) [2] | Compound | in vitro cytotoxic activity towards MCF-7 (in words) (MCF-7 cancer cell line) | IC50 [1] [nM] | guanine adducts formed (9-ethylguanine (9-EtG)) [%] | further results
1 | – | CN(C)C(=S)N(C)C.Cc1c(C)c(C)[c-](C)c1C.O=S(=O)([O-])C(F)(F)F.O=S(=O)([O-])C(F)(F)F.[Ir+3].c1ccc2cc3nc4c5cccnc5c5ncccc5c4nc3cc2c1 [[(η^5-C5Me5)Ir((NMe2)2CS)(dppn)](CF3SO3)2] | possess in vitro cytotoxic activity | – | – | in vitro cytotoxic activity towards HT-29 (in words) (HT-29 cancer cell line): possess in vitro cytotoxic activity
2 | – | Cc1c(C)c(C)[c-](C)c1C.NCCN.O=S(=O)([O-])C(F)(F)F.[Cl-].[Ir+3] [[(η^5-C5Me5) Ir(en)Cl](CF3SO3)] | inactive | – | – | –
3 | – | Cc1c(C)c(C)[c-](C)c1C.O=S(=O)([O-])C(F)(F)F.[Cl-].[Ir+3].c1ccc2nc3c4cccnc4c4ncccc4c3nc2c1 [[(η^5-C5Me5)IrCl(dppz)](CF3SO3)] | possess in vitro cytotoxic activity | – | – | in vitro cytotoxic activity towards HT-29 (in words) (HT-29 cancer cell line): possess in vitro cytotoxic activity
4 | – | Cc1c(C)c(C)[c-](C)c1C.O=S(=O)([O-])C(F)(F)F.[Cl-].[Ir+3].c1cnc2c(c1)ccc1cccnc12 [[(η^5-C5Me5)Ir(phen)Cl](CF3SO3)] | inactive | – | – | –
5 | rapid hydrolysis | Cc1c(C)c(C)[c-](C)c1C.[Cl-].[Ir+3].[c-]1ccccc1-c1ccc2ccccc2n1 [ZL68, [(η^5-C5Me5)Ir(2-phq)Cl]] | – | 2550 ± 30 | – | –
6 | – | [(Cp^xdiPh)Rh(2-phenylbipyridyl)Cl]Cl [JS39] | – | – | – | relative activity against A2780 (in words) [3]: most active
7 | rapid hydrolysis | Cc1c(C)c(C)[c-](C)c1C.Fc1c[c-]c(-c2ccccn2)c(F)c1.[Cl-].[Ir+3] [ZL74, [(η^5-C5Me5)Ir(2-dfphpy)Cl]] | – | 6530 ± 500 | 100 | –
8 | – | [(Cp^xPh)Rh(2-Phenylbipyridyl)Cl]Cl [JS29] | – | – | – | relative activity against A2780 (in words) [3]: most active
9 | rapid hydrolysis | Cc1c(C)c(C)[c-](C)c1C.Cc1c[c-]c(-c2ccccn2)cc1.[Cl-].[Ir+3] [ZL69, [(η^5-C5Me5)Ir(tpy)Cl]] | – | 3280 ± 140 | 100 | –
10 | – | Cc1c(C)c(C)[c-](C)c1C.[Cl-].[Ir+3].c1ccc(-c2nccs2)nc1 [[(η^5-C5Me5)Ir (pyTz)Cl]^+] | – | – | – | activity towards A2780 (in words) [4]: inactive; activity towards A2780cisR (in words) [5]: inactive
11 | – | [(Cp*)Rh(2-phenylbipyridyl)Cl]Cl [JS36] | – | – | – | relative activity against A2780 (in words) [3]: most active

Row | Compound | hydrolysis (in words) [2] | in vitro cytotoxic activity towards MCF-7 (in words) (MCF-7 cancer cell line) | IC50 [1] [nM] | guanine adducts formed (9-ethylguanine (9-EtG)) [%] | further results
12 | Cc1c(C)c(-c2ccccc2)[c-](C)c1C.[Cl-].[Ir+3].[c-]1ccccc1-c1ccccn1 (centres unmarked) [ZL107, [(η^5-C5Me4C6H5)(2-phpy)Cl]] | rapid hydrolysis | – | 2140 ± 500 | 100 | –
13 | Cc1c(C)c(C)[c-](-c2ccc(-c3ccccc3)cc2)c1C.[Cl-].[Ir+3].[c-]1ccccc1-c1ccccn1 [ZL49, [(η^5-C5Me4C6H4C6H5)Ir(2-phpy)Cl]] | rapid hydrolysis | – | 700 | 100 | GI50 (colon COLO 205): < 200 nM; GI50 (melanoma SK-MEL-5): < 200 nM; GI50 (breast MDA-MB-468): < 200 nM; CC50 [6]: 7080 ± 1050 nM; Mean graph midpoint (MID) TGI ([6]; ca. 60 cell lines, 0.01 to 100 μM): 2190 ± 150 nM; GI50 ([6]; ca. 60 cell lines, 0.01 to 100 μM, read-out: Mean graph midpoint (MID) GI50): 710 ± 10 nM; selectivity among tumour type subpanels (in words) ([6]; mean graphs): selective for leukemia, colon cancer, and melanoma
